From patent publication US8288426B2, “Pesticidal composition comprising fenamidone and an insecticide compound” (Bayer CropScience AG, priority 2006, dated 2012) come the findings set out here.

What all share (type): in vivo
Settings in all cases: mortality

One test concerns Spodoptera exigua. As to the kind of experiment: Spodoptera exigua - test (cabbage leaf dip, larvae). On the procedure: (§1) To produce a suitable preparation of active compound, 1 part by weight of active compound is mixed with the stated amount of solvent and emulsifier, and the concentrate is diluted with emulsifier-containing water to the desired concentration.
Cabbage leaves (Brassica oleracea) are treated by being dipped into the preparation of the active compound of the desired concentration and are infested with larvae of the beet army worm (Spodoptera exigua) as long as the leaves are still moist.
(§2) After the specified period of time, the mortality in % is determined. 100% means that all the caterpillars have been killed; 0% means that none of the caterpillars have been killed.

The test system of another test is Plutella xylostella. As to the kind of experiment: Plutella xylostella - test (cabbage leaf dip, larvae). On the procedure:
as §1
Cabbage leaves (Brassica oleracea) are treated by being dipped into the preparation of the active compound of the desired concentration and are infested with larvae of the diamond back moth (Plutella xylostella) as long as the leaves are still moist.
as §2

The next test deals with Spodoptera frugiperda. As to the kind of experiment: Spodoptera frugiperda - test (cabbage leaf dip, larvae). As to the method: as §1
Cabbage leaves (Brassica oleracea) are treated by being dipped into the preparation of the active compound of the desired concentration and are infested with larvae of the fall army worm (Spodoptera frugiperda) as long as the leaves are still moist.
as §2

Regarding `N#C/N=C1\SCCN1Cc1ccc(Cl)nc1` [Thiacloprid, thiacloprid], the “Efficacy in % after 3d” value in the test with Spodoptera exigua (100 ppm) came out at 10%.

`CN1COCN(Cc2cnc(Cl)s2)/C1=N\[N+](=O)[O-]` [Thiamethoxam, thiamethoxam]: the “Efficacy in % after 4d” value in the test on Plutella xylostella (4 ppm, first part of Table A) is 0%.

Regarding `CSC1=N[C@@](C)(c2ccccc2)C(=O)N1Nc1ccccc1` [Fenamidone, fenamidone], the “Efficacy in % after 4d” value is on record as 35% with Plutella xylostella (200 ppm, first part of Table A); 65% in the test on Plutella xylostella (200 ppm, second part of Table A); 75% in the test with Plutella xylostella (500 ppm, first part of Table A); 0% in the test with Spodoptera frugiperda (200 ppm). The “Efficacy in % after 3d” value in the test on Spodoptera exigua (100 ppm) and with Spodoptera exigua (200 ppm) was 0% throughout.

As to `CN/C(=N\[N+](=O)[O-])NCc1cnc(Cl)s1` [Clothianidin, clothianidin], the “Efficacy in % after 4d” value with Plutella xylostella (4 ppm, second part of Table A) was found to be 0%; with Spodoptera frugiperda (4 ppm), 0%.

Turning to `O=[N+]([O-])NC1=NCCN1Cc1ccc(Cl)nc1` [Imidacloprid, imidacloprid], the “Efficacy in % after 4d” value in the test with Plutella xylostella (20 ppm, first part of Table A) is listed as 5%. The “Efficacy in % after 3d” value in the test with Spodoptera exigua (20 ppm) is on record as 0%.
